In patent publication US4211772A, “Benzopyran glycoside acetals and ketals” (Laboratoires Sarget, priority 1977, dated 1980):
In brackets after ≈: the same amount, converted by molar mass. Where two headings read alike, the source gives them in different places.

Assays:
[1] = i.p. toxicity in Swiss EOPS mice, mortality at 14 days; settings: mouse, in vivo, ip, DMSO solution at 1/2, read-out: percentages of mortality at the end of 14 days
Protocol: The i.p. toxicities of certain compounds of the present invention were determined using male and female Swiss EOPS mice for administrations in DMSO solution at 1/2 under a volume of P/100.

carragenin edema = test: Anti-inflammatory activity: carragenin edema test; type: in vivo; settings: Rattus norvegicus, ip, substantially alkaline pH solution, read-out: % inhibition of carragenin edema; for inhibition in vivo at 100 mg/kg: 100 mg/kg i.p.; for inhibition in vivo at 200 mg/kg: 200 mg/kg i.p.; for inhibition in vivo at 300 mg/kg: 300 mg/kg i.p.; for inhibition in vivo at 150 mg/kg: 150 mg/kg i.p.
Protocol: Anti-inflammatory activity
This was determined by the carragenin edema test using male Wistar EOPS rats. Inflammation was induced by the injection of 0.1 ml of a suspension of 5% carragenin in physiological serum into the muscular bundle of the metatarsal region of the posterior paw of the animal. The test substance was administered i.p. in neutralized solution at the same time as the carragenin.
Edema was measured by plethysmometry at different times after the administration of the carragenin.
Tables IV and V show the percentages of inhibition as a function of time and of dosage for certain compounds of the present invention.
The above results were obtained for solutions of substantially alkaline
The reference experiments were performed using physiological serum brough
to a pH approximately the same as the pH of the solutions to be tested.

Aldose Reductase = target: T1, Aldose Reductase (Bos taurus, UniProt P16116); test: Inhibition of aldose reductase in vitro (enzyme from beef eye lenses, glyceraldehyde substrate); type: biochemical; settings: in DMF solution, read-out: percentages of inhibition (aldose reductase); for inhibition at 100 µM: 10^-4 mole/l; for inhibition at 10 µM: 10^-5 mole/l
T1 construct: The enzyme is extracted from beef eye lenses; from tissue; host or cells: beef eye lenses
Source text: Inhibition of Aldose Reductase In Vitro
The reoxidation of NADPH coupled to the enzymatic reaction was followed spectrophotometrically at 340 nm.

capillary resistance = test: Capillaroprotecting effects: capillary resistance; type: in vivo, male OFA EOPS rats
Protocol: (§1) Capillaroprotecting effects
The capillary resistance was determined by a variant of the method of Charlier et al, Arch. Inter. Physiol.

Solubilities in water = type: physicochemical; settings: water; read-out: Solubilities in water
capillary permeability = test: Capillaroprotecting effects: capillary permeability; type: in vivo, conventional male Wistar rats
Protocol: as §1
The capillary permeability was determined by the method of Charlier et al, Arch. Inter. Physiol.

Row | Structure (SMILES) | mortality at 336 h ([1]; 500 mg/kg i.p.) | mortality at 336 h ([1]; 1000 mg/kg i.p.) | mortality at 336 h ([1]; 2000 mg/kg i.p.) | inhibition in vivo at 200 mg/kg (carragenin edema; 1/2 h) | inhibition in vivo at 300 mg/kg (carragenin edema; 1/2 h) | inhibition in vivo at 200 mg/kg (carragenin edema; 1 h, 1 h 1/2) | inhibition in vivo at 200 mg/kg (carragenin edema; 1 h, 1 h) | inhibition in vivo at 300 mg/kg (carragenin edema; 1 h, 1 h 1/2) | inhibition in vivo at 300 mg/kg (carragenin edema; 1 h, 1 h) | inhibition in vivo at 200 mg/kg (carragenin edema; 2 h, 2 h) | inhibition in vivo at 300 mg/kg (carragenin edema; 2 h, 2 h) | inhibition in vivo at 200 mg/kg (carragenin edema; 3 h, 3 h) | inhibition in vivo at 300 mg/kg (carragenin edema; 3 h, 3 h) | inhibition in vivo at 200 mg/kg (carragenin edema; 4 h, 4 h) | inhibition in vivo at 300 mg/kg (carragenin edema; 4 h, 4 h) | inhibition in vivo at 200 mg/kg (carragenin edema; 5 h, 5 h) | inhibition in vivo at 300 mg/kg (carragenin edema; 5 h, 5 h) | inhibition in vivo at 200 mg/kg (carragenin edema; 6 h, 6 h) | inhibition at 100 µM (Aldose Reductase) | inhibition at 10 µM (Aldose Reductase) | other results
1 | C[C@@H]1O[C@@H](O[C@H]2[C@H](Oc3cc(O)c4c(c3)OC(c3ccc(O)cc3)CC4=O)O[C@H](CO)[C@@H](O)[C@@H]2O)[C@@H]2OC(C)(C)O[C@@H]2[C@H]1O (stereo partly drawn) [No. 8, 7-O-(2,3-O,O-isopropylidene-2-α-L-rhamnosyl-β-D-glucosyl)-naringenin] | 0% | 0% | 0% | 9% | 62% | 70% | 42% | 74% | 78% | 60% | 73% | 28% | 50% | 27% | 50% | 22% | 33% | 24% | 25% | 0% | inhibition in vivo at 100 mg/kg (carragenin edema; 1/2 h): 23%; inhibition in vivo at 100 mg/kg (carragenin edema; 1 h, 1 h 1/2): 85%; inhibition in vivo at 100 mg/kg (carragenin edema; 1 h, 1 h): 64%; inhibition in vivo at 100 mg/kg (carragenin edema; 2 h, 2 h): 75%; inhibition in vivo at 100 mg/kg (carragenin edema; 3 h, 3 h): 48%; inhibition in vivo at 100 mg/kg (carragenin edema; 4 h, 4 h): 48%; inhibition in vivo at 100 mg/kg (carragenin edema; 5 h, 5 h): 35%; inhibition in vivo at 100 mg/kg (carragenin edema; 6 h, 6 h): 37%; inhibition in vivo at 300 mg/kg (carragenin edema; 6 h, 6 h): 35%
2 | O=c1ccc2cc(O[C@@H]3O[C@@H]4COC5(CCCCC5)O[C@H]4[C@H](O)[C@H]3O)c(O)cc2o1 [No. 16, 6-O-(4,6-O,O-cyclohexylidene-β-D-glucosyl) esculetol] | 10% | 80% |  | 59% |  | 45% | 59% |  |  | 46% |  | 30% |  | 23% |  | 27% |  | 24% | 63% | 14% | mortality at 336 h ([1]; 750 mg/kg i.p.): 80%; capillary resistance, effect observed (capillary resistance; 25 mg/kg i.p.): 8.8 ± 6.8 u cm Hg/h; capillary resistance, effect observed (capillary resistance; 50 mg/kg i.p.): 23 ± 11.1 u cm Hg/h; solubility (Solubilities in water): 1250 µg/mL (≈ 2.97 mM)
3 | CC1(C)OC[C@H]2O[C@@H](Oc3cc4ccc(=O)oc4cc3O)[C@H](O)[C@@H](O)[C@@H]2O1 [No. 15, 6-O-(4,6-O,O-isopropylidene-β-D-glucosyl) esculetol] | 10% | 0% | 70% | 18% |  | 20% | 26% |  |  | 13% |  | 1% |  | 7% |  | 10% |  | 17% | 60% | 9% | mortality at 336 h ([1]; 1500 mg/kg i.p.): 20%; capillary resistance, effect observed (capillary resistance; 25 mg/kg i.p.): 17 ± 11.8 u cm Hg/h; capillary resistance, effect observed (capillary resistance; 50 mg/kg i.p.): 20 ± 12.9 u cm Hg/h; solubility (Solubilities in water): 9200 µg/mL (≈ 24.2 mM)
4 | COc1ccc(-c2cc(=O)c3c(O)cc(O[C@@H]4O[C@H](CO[C@@H]5O[C@@H](C)[C@H](O)[C@H]6OC(C)(C)O[C@@H]56)[C@@H](O)[C@H](O)[C@H]4O)cc3o2)cc1O [No. 32, 7-O-(2,3-O,O-isopropylidene-6-α-L-rhamnosyl-β-D-glucosyl)diosmitin] |  | 0% |  | 8% | 0% | 35% | 16% | 38% | 8% | 43% | 44% | 36% | 31% | 30% | 32% | 20% | 43% | 20% |  |  | inhibition in vivo at 150 mg/kg (carragenin edema; 1/2 h): 5%; inhibition in vivo at 150 mg/kg (carragenin edema; 1 h, 1 h 1/2): 37%; inhibition in vivo at 150 mg/kg (carragenin edema; 1 h, 1 h): 17%; inhibition in vivo at 150 mg/kg (carragenin edema; 2 h, 2 h): 49%; inhibition in vivo at 150 mg/kg (carragenin edema; 3 h, 3 h): 43%; inhibition in vivo at 150 mg/kg (carragenin edema; 4 h, 4 h): 42%; inhibition in vivo at 150 mg/kg (carragenin edema; 5 h, 5 h): 37%; inhibition in vivo at 150 mg/kg (carragenin edema; 6 h, 6 h): 34%; inhibition in vivo at 300 mg/kg (carragenin edema; 6 h, 6 h): 36%; percentage reduction of capillary permeability (capillary permeability; 10 mg/kg i.p.): 7%; percentage reduction of capillary permeability (capillary permeability; 75 mg/kg i.p.): 32%
